This is an account of results in patent publication US7718768B2, “Biologically active peptide [sequence]” (CMS Peptides Patent Holding Company Limited, priority 2001, dated 2010).

The subject of one experiment is T lymphocyte. Nature of the experiment: T lymphocyte transformation test (ConA, MTT) on spleen cells of treated mice. Type of experiment: in vivo, BALB/c mice. Also noted: key: OD of assay wells divided by OD of control wells. To be noted: IFN-γ and IL-2 groups 3×10^5 IU/kg/day, X ± SD. The method, boiled down:
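Mice (10/group) were dosed i.p. in saline once daily for 15 days; spleen cells were harvested the next day. Cells at 1×10^6/ml were stimulated with ConA (100 μg/ml stock) or medium for 66 h at 37 °C, then given MTT for 4 h and read at OD570/630. Stimulation Index = mean ConA OD / mean control OD per mouse.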

For the next experiment, the system named is anti-SRBC antibody. Nature of the experiment: humoral immunity (SRBC hemolysis index) of mice bearing transplanted B16 melanoma. Type of experiment: in vivo, C57BL/6 mice. Also noted: key: index = (OD540 of test sample ÷ reference OD540) × 500. As for the experimental part:
(§1) Intraperitoneal injection, once per day. […] Treatment of all groups with testing substance lasted for 30 days or until the animal died unless otherwise specified.
Stock B16 mouse melanoma cells were incubated in DMEM/F12 medium supplemented with 10% fetal bovine serum, 37° C./5% CO2 for 72 hrs, then washed 3-4 times with Hank's solution. The cell concentration was adjusted to 1×10^5 per ml with Hank's solution and 0.1 ml of the cell suspension was injected via the tail vein into the testing mice to generate the B16 melanoma bearing animal model. Treatment with test substance started as described in section Method 1.
Sheep red blood cells (SRBC) were prepared by collecting blood from the cervical vein and put into a sterile flask with glass beads. The flask was shaken for 3 minutes and the blood then mixed with Alsever solution (glucose 2.05 g, NaCl 0.4 g, […] 0.8 g, adjust to 100 ml with distilled water) and stored at 4° C. Immediately before use, samples were centrifuged at 130 g, 5 minutes to collect the SRBC. The cells were washed two times by re-suspension and centrifugation in normal saline. Then the cell pellet was collected by centrifugation at 180 g for 10 minutes and re-suspended in saline to make the final working SRBC suspension, 2% (v/v).
Complement was prepared by adding 10 volumes of fresh Cavy serum into one volume centrifuge packed SRBC, and then gently shaken for 30 minutes at 4° C. The SRBC was removed by centrifugation at 200 g for 10 minutes. 10 volumes of normal saline were added to obtain the working complement solution.
On the testing animals, on the 27th date of test substance treatment, 0.2 ml of the working SRBC cell suspension was injected into each animal to raise antibody. On the day after the last test substance administration, blood was collected from the eye canthus and left at room temperature for one hour for serum exudation. After centrifugation at 200 g for 10 minutes, the collected serum was diluted by 500 times with normal saline.
To 1 ml diluted mouse serum of each mouse, 0.5 ml SRBC suspension was added. Ice cold. Then 1 ml working complement solution was added and incubated at 37° C. water bath for 10 minutes. Reactions were terminated by ice cold. Samples were then centrifuged at 200 g for 10 minutes to obtain the supernatant.
To 1 ml of this supernatant, 3 ml Drabkin solution was added and left at room temperature for 10 minutes. OD540nm was obtained.
Reference OD540nm was obtained by mixing 0.25 ml SRBC suspension with Drabkin solution to 4 ml and placed at room temperature for 10 minutes before OD540nm was taken. Hemolysis index=(OD540nm of test sample÷reference OD540 nm)×500 6.2 After the Humoral Immunity Study, the Mice were Killed by Cervical Vertebra Dislocation. Postmortum Examination of the Animals was Performed. The Pathological Changes were Recorded, and the Numbers of Melanoma Lung Metastasis Foci were Counted. Results 1. The Effect of Peptide on the Cellular Phagocytosis in BALB/c Mice with Transplanted S180 Sarcoma (Method 2.1)

For another experiment, the system named is mononuclear phagocyte. Nature of the experiment: phagocytosis index in mice with transplanted S180 sarcoma. Type of experiment: in vivo, BALB/c mice. As for the experimental part:
as §1
Stock S180 sarcoma cells were incubated in DMEM/F12 medium supplemented with 10% fetal bovine serum, 37° C., 5% CO2 for 72 hrs, then washed 3-4 times with Hank's solution at room temperature. Adjust the cell concentration to 1-2×10^9 per liter with Hank's solution. […] The mice were killed by cervical vertebra dislocation. Vigorously growing and non-disrupted tumor masses were harvested and washed clean with sterile saline. The tissue was dispersed in saline to a homogenous cell suspension, in a ratio of 1 g tissue to 4 ml saline. The sarcoma bearing mice model was prepared with an injection of 0.2 ml cell suspension through the armpit. Administration of test substance treatment started as described in section Method 1.
2.1 The effect of peptides on the phagocytotic function of mononuclear phagocyte in mice with S180 sarcoma was analyzed by injecting mice from the tail vein with 0.1 ml/10 g body weight of Indian ink (1:5 dilution with normal saline) on the second day after the last test substance administration. At one minute and five minutes after the injection, 20 μl blood was obtained from the eye canthus with heparinised tubing. The blood was mixed with 2 ml 0.1% w/v Na2CO3 and then OD680nm obtained. The outline clear index K was calculated by the following formula: K=(lgA1−lgA2)÷(t2−t1)
After the phagocytosis index study, the mice were killed by cervical vertebra dislocation. The liver, spleen, and cancer tissue were dissected, blotted dry, and weighed.
1. The Phagocytosis Index α was Calculated as Below: α=(^3√K)×(W÷WLS)

Setting [1] is: peptide 5 μg/kg/day i.p. 15 days.
Setting [2] is: peptide 50 μg/kg/day i.p. 15 days.
Where [3] appears, read: peptide 0.5 μg/kg/day i.p. 15 days.
[4] abbreviates: peptide 500 μg/kg/day i.p. 15 days.
Where [5] appears, read: 3 × 10^5 IU/kg i.p. once per day.

Marks after values point to notes of the source that are not given here. No end group written: not given here.

As for FNFVPP [CMS003], the figures for the “stimulation index (T lymphocyte transformation)” value (shortened to “stimulation index”) with T lymphocyte (setting [1]) and in the experiment with T lymphocyte (setting [2]) were 1.6 ± 0.2 and 2.2 ± 0.5*^@^, respectively. Also, the Hemolysis index was 61.6 ± 26.9*^$ with anti-SRBC antibody (0.5 μg/kg i.p. once per day), 37.2 ± 15.9*^$ in the experiment on anti-SRBC antibody (5 μg/kg i.p. once per day), 38.7 ± 13.5*^$ in the experiment on anti-SRBC antibody (50 μg/kg i.p. once per day) and 35.9 ± 13.0*^$ in the experiment with anti-SRBC antibody (500 μg/kg i.p. once per day).
In turn, IGMESAGIHETTY [CMS016] displayed a Hemolysis index with anti-SRBC antibody (500 μg/kg i.p. once per day) of 43.3 ± 29.9.
For KAVGHLDDLPGAL [CMS008], the “stimulation index” value in the experiment on T lymphocyte (setting [3]) stood at 1.7 ± 0.3. Also, the Hemolysis index in the experiment on anti-SRBC antibody (0.5 μg/kg i.p. once per day) is reported as 42.7 ± 18.4*^$; in the experiment on anti-SRBC antibody (5 μg/kg i.p. once per day) it was 38.9 ± 12.0*^$; in the experiment with anti-SRBC antibody (50 μg/kg i.p. once per day), 37.1 ± 16.7*^$; with anti-SRBC antibody (500 μg/kg i.p. once per day), 50.1 ± 17.8*^$.
On to LRVAPEEHPTL [CMS009], for which the “stimulation index” value in the experiment on T lymphocyte (setting [4]) was 1.7 ± 0.2.
For the molecule PSIVGRPRHQGVM [CMS015], the “stimulation index” value with T lymphocyte (setting [4]) is reported as 1.9 ± 0.3*^@^.
On to PTTKTYFPHF [CMS001], for which the figures for the Phagocytosis index in the experiment on mononuclear phagocyte (5 μg/kg i.p. once per day) and in the experiment with mononuclear phagocyte (50 μg/kg i.p. once per day) were 6.67 ± 0.43*^ and 6.24 ± 0.33*^, respectively. The “stimulation index” value is recorded as 1.7 ± 0.2 in the experiment on T lymphocyte (setting [1]) and 2.2 ± 0.5*^@^ in the experiment with T lymphocyte (setting [2]). Besides, the Hemolysis index is recorded as 51.0 ± 16.2*^$ with anti-SRBC antibody (0.5 μg/kg i.p. once per day), 41.3 ± 17.7*^$ in the experiment on anti-SRBC antibody (5 μg/kg i.p. once per day), 45.0 ± 31.9*^$ with anti-SRBC antibody (50 μg/kg i.p. once per day) and 36.0 ± 10.2*^$ with anti-SRBC antibody (500 μg/kg i.p. once per day).
Turning to “Phe Val Asn Asp (FVND; listed as Sus scrofa) [CMS035]”, the values for the Hemolysis index with anti-SRBC antibody (5 μg/kg i.p. once per day), in the experiment with anti-SRBC antibody (50 μg/kg i.p. once per day) and with anti-SRBC antibody (500 μg/kg i.p. once per day) were 38.9 ± 21.2*^$, 44.7 ± 22.7*^$ and 40.5 ± 25.8, respectively.
Take “Pro Glu Asn Phe (PENF; listed as Sus scrofa) [CMS034]”: the Phagocytosis index in the experiment with mononuclear phagocyte (0.5 μg/kg i.p. once per day) is reported as 6.35 ± 1.02; in the experiment with mononuclear phagocyte (5 μg/kg i.p. once per day) it was 6.20 ± 0.44*^. Further, the “stimulation index” value with T lymphocyte (setting [1]) was 1.5 ± 0.2. Moreover, the Hemolysis index in the experiment on anti-SRBC antibody (0.5 μg/kg i.p. once per day) is recorded as 50.8 ± 18.4*^$; in the experiment with anti-SRBC antibody (5 μg/kg i.p. once per day) it was 43.0 ± 11.7*^$; in the experiment on anti-SRBC antibody (50 μg/kg i.p. once per day), 30.2 ± 10.9.
With RVAPEEHPTL [CMS011], the “stimulation index” value with T lymphocyte (setting [3]) came out at 1.6 ± 0.4. Also, the Hemolysis index is recorded as 32.0 ± 14.7 with anti-SRBC antibody (0.5 μg/kg i.p. once per day) and 34.4 ± 19.4 with anti-SRBC antibody (500 μg/kg i.p. once per day).
In the case of “Tyr Ser Leu (YSL; listed as Sus scrofa) [CMS024]”, the Hemolysis index is recorded as 43.0 ± 10.7*^$ in the experiment with anti-SRBC antibody (0.5 μg/kg i.p. once per day), 42.2 ± 11.8*^$ in the experiment on anti-SRBC antibody (5 μg/kg i.p. once per day), 27.8 ± 9.1 in the experiment on anti-SRBC antibody (50 μg/kg i.p. once per day) and 30.1 ± 10.0 in the experiment with anti-SRBC antibody (500 μg/kg i.p. once per day).
With VAPEEHPTLLTEAPLNPK [CMS010], the “stimulation index” value in the experiment on T lymphocyte (setting [3]) is on record as 1.7 ± 0.3; in the experiment on T lymphocyte (setting [4]), 2.0 ± 0.3*^@^. For the same molecule, the Hemolysis index is listed as 34.9 ± 10.5*^$ with anti-SRBC antibody (0.5 μg/kg i.p. once per day), 51.0 ± 14.6*^$ in the experiment on anti-SRBC antibody (5 μg/kg i.p. once per day), 39.6 ± 7.7*^$ in the experiment with anti-SRBC antibody (50 μg/kg i.p. once per day) and 50.1 ± 16.7*^$ with anti-SRBC antibody (500 μg/kg i.p. once per day).
As for VGMGQKDSY [CMS019], the “stimulation index” value with T lymphocyte (setting [4]) is reported as 1.8 ± 0.3. The results for the Hemolysis index with anti-SRBC antibody (0.5 μg/kg i.p. once per day), in the experiment with anti-SRBC antibody (5 μg/kg i.p. once per day) and with anti-SRBC antibody (50 μg/kg i.p. once per day) were 42.0 ± 12.0*^$, 35.4 ± 15.1*^$ and 28.3 ± 7.6, respectively.

B1: IFN-γ: recombinant mouse interferon-γ, Beijing Biotech Inc.; positive control immunostimulant (protein, UniProt P01580 23-155, looked up)
Interferon gamma: HGTVIESLESLNNYFNSSGIDVEEKSLFLDIWRNWQKDGDMKILQSQIISFYLRLFEVLKDNQAISNNISVIESHLITTFFSNSKAKKDAFMSIAKFEVNNPQVQRQAFNELIRVVHQLLPESSLRKRKRSRC
In the experiment with mononuclear phagocyte (setting [5]), B1 yielded a Phagocytosis index of 5.45 ± 0.71. In addition, the “stimulation index” value in the experiment with T lymphocyte (setting [3]) is recorded as 1.6 ± 0.2; in the experiment with T lymphocyte (setting [1]), 1.6 ± 0.2; in the experiment on T lymphocyte (setting [2]), 1.7 ± 0.2; in the experiment with T lymphocyte (setting [4]) it was 1.6 ± 0.2. Also, in the experiment with anti-SRBC antibody (setting [5]), the Hemolysis index was determined as 60.5 ± 17.4.
